Source: PubChem BioAssay AID288 (DTP/NCI, 2004)
Values joined by “and” are separate entries in the source; they are usually repeats but may differ in a detail not shown here. Equal values may be shown once. Inconclusive results are not listed.

System: BDF1 mice, M5076 sarcoma s.c., survival/tumor T/C
Experiment: NCI In Vivo Anticancer Drug Screen. Data for tumor model Sarcoma M5076 (subcutaneous) in B6D2F1 (BDF1) mice
Description: The antitumor activity of compounds was measured in mice bearing transplantable tumors. Survival or tumor size were measured and the results are expressed as the measurement made in the treated group (T) divided by the measurement made in the vehicle treated control group (C). The tumor model used in this assay is Sarcoma M5076 (subcutaneous) in B6D2F1 (BDF1) mice

[1] = endpoint: median survival time, dose: 50.0 mg/kg/injection, schedule: Q01DX009 (ip), vehicle: saline with Tween-80, higher = longer survival
[2] = endpoint: median survival time, dose: 100.0 mg/kg/injection, schedule: Q01DX009 (ip), vehicle: saline with Tween-80, higher = longer survival
[3] = endpoint: median survival time, dose: 200.0 mg/kg/injection, schedule: Q01DX009 (ip), vehicle: saline with Tween-80, higher = longer survival
[4] = endpoint: median tumor weight (est.), dose: 100.0 mg/kg/injection, schedule: Q01DX009 (ip), vehicle: saline with Tween-80, higher = larger tumour
[5] = endpoint: mean tumor weight, dose: 37.5 mg/kg/injection, schedule: Q02DX011 (ip), vehicle: saline, higher = larger tumour
[6] = endpoint: median survival time, dose: 50.0 mg/kg/injection, schedule: Q01DX009 (ip), vehicle: saline, higher = longer survival

COC(=O)C(Cc1ccccc1)NS(=O)(=O)c1ccc(C)cc1 (stereo unspecified)
T/C [1]: 98 % of control | T/C [2]: 106 % of control | T/C [3]: 97 % of control | T/C [4]: 118 % of control

O=c1[nH]c(=O)n(C2CC(O)C(CO)O2)cc1C(F)(F)F (stereo unspecified)
T/C [5]: 87 % of control | T/C (endpoint: mean tumor weight, dose: 75.0 mg/kg/injection, schedule: Q02DX011 (ip), vehicle: saline, higher = larger tumour): 24 % of control | T/C (endpoint: mean tumor weight, dose: 150.0 mg/kg/injection, schedule: Q02DX011 (ip), vehicle: saline, higher = larger tumour): 6 % of control | T/C (endpoint: median tumor weight (est.), dose: 37.5 mg/kg/injection, schedule: Q02DX011 (ip), vehicle: saline, higher = larger tumour): 70 % of control and 90 % of control | T/C (endpoint: median tumor weight (est.), dose: 150.0 mg/kg/injection, schedule: Q02DX011 (ip), vehicle: saline, higher = larger tumour): 4 % of control

O=C1NC2(CCCCC2)C(=O)N1CCN(CCCl)CCCl
T/C (endpoint: median tumor weight (est.), dose: 16.0 mg/kg/injection, schedule: Q01DX009 (ip), vehicle: saline with Tween-80, higher = larger tumour): 10 % of control

CCOc1cc(/C=N/NC(=O)N(c2ccccc2)c2ccccc2)ccc1O
T/C [1]: 98 % of control | T/C [2]: 99 % of control | T/C [3]: 92 % of control

COc1cc(/C=N/NC(=O)COCC(=O)N/N=C/c2ccc(O)cc2OC)ccc1O
T/C [1]: 94 % of control | T/C [2]: 86 % of control | T/C [3]: 91 % of control | T/C (endpoint: median tumor weight (est.), dose: 50.0 mg/kg/injection, schedule: Q01DX009 (ip), vehicle: saline with Tween-80, higher = larger tumour): 116 % of control | T/C [4]: 122 % of control | T/C (endpoint: median tumor weight (est.), dose: 200.0 mg/kg/injection, schedule: Q01DX009 (ip), vehicle: saline with Tween-80, higher = larger tumour): 122 % of control

COC(=N)CCCCC(=N)OC
T/C [6]: 98 % of control | T/C (endpoint: median survival time, dose: 100.0 mg/kg/injection, schedule: Q01DX009 (ip), vehicle: saline, higher = longer survival): 98 % of control | T/C (endpoint: median survival time, dose: 200.0 mg/kg/injection, schedule: Q01DX009 (ip), vehicle: saline, higher = longer survival): 98 % of control | T/C (endpoint: median tumor weight (est.), dose: 50.0 mg/kg/injection, schedule: Q01DX009 (ip), vehicle: saline, higher = larger tumour): 87 % of control | T/C (endpoint: median tumor weight (est.), dose: 100.0 mg/kg/injection, schedule: Q01DX009 (ip), vehicle: saline, higher = larger tumour): 86 % of control

Nc1nncs1
T/C (endpoint: mean tumor weight, dose: 18.8 mg/kg/injection, schedule: Q02DX011 (ip), vehicle: saline, higher = larger tumour): 43 % of control | T/C [5]: 3 % of control | T/C (endpoint: median survival time, dose: 6.25 mg/kg/injection, schedule: Q01DX009 (ip), vehicle: saline, higher = longer survival): 103 % of control | T/C (endpoint: median survival time, dose: 12.5 mg/kg/injection, schedule: Q01DX009 (ip), vehicle: saline, higher = longer survival): 111 % of control | T/C (endpoint: median survival time, dose: 25.0 mg/kg/injection, schedule: Q01DX009 (ip), vehicle: saline, higher = longer survival): 121 % of control | T/C [6]: 122 % of control | T/C (endpoint: median tumor weight (est.), dose: 6.25 mg/kg/injection, schedule: Q01DX009 (ip), vehicle: saline, higher = larger tumour): 75 % of control | T/C (endpoint: median tumor weight (est.), dose: 12.5 mg/kg/injection, schedule: Q01DX009 (ip), vehicle: saline, higher = larger tumour): 53 % of control | T/C (endpoint: median tumor weight (est.), dose: 18.8 mg/kg/injection, schedule: Q02DX011 (ip), vehicle: saline, higher = larger tumour): 47 % of control | T/C (endpoint: median tumor weight (est.), dose: 25.0 mg/kg/injection, schedule: Q01DX009 (ip), vehicle: saline, higher = larger tumour): 22 % of control

C[c-]1[c-][c-][c-][c-]1.C[c-]1[c-][c-][c-][c-]1.[C-]#[O+].[C-]#[O+].[C-]#[O+].[C-]#[O+].[C-]#[O+].[C-]#[O+].[Mo].[Mo]
T/C [2]: 111 % of control | T/C [3]: 94 % of control
